From patent US20040147557A1, “Aryl piperidine derivatives as inducers of ldl-receptor expression” (priority 2003, published 2004)
pIC50: −log10 of the molar value. Like-named read-outs stand apart in the source and are kept apart here.

Key:
LDL-r promoter = LDL-r promoter luciferase reporter gene assay in stably transfected HepG2 cells; format: cell-based, human; settings: HepG2 cells with LDL-r promoter-luciferase construct, 24 hours incubation, RPMI medium with 2% lipoprotein-deficient serum, induction of luciferase activity, read-out: In vitro (IC50)
Method: The ability of the compounds of the invention to induce LDL-r expression by human hepatocytes in vitro is determined using a human hepatocarcinoma cell line, Hep G2, as a model system. A reporter gene assay using the LDL-r promoter in front of the reporter gene Luciferase is used as a primary screen.
HepG2 cells, stably transfected with a construct comprising the LDL-r promoter and the luciferase reporter gene, were seeded at 50.000 cells/well in 96 well plates. After 1 day, cells were incubated with compounds for 24 hours in RPMI medium containing 2% of lipoprotein-deficient serum. Compounds were tested from 10^−6M to 10^−9M. Cell lysates were prepared and the luciferase activity was measured by the luciferase assay system (Promega). Induction of luciferase activity was calculated taking untreated cells as control and ED50 of each compounds was determinated compared to the ED50 of an internal standart.

fat-fed hamsters = assay: Oral administration to fat-fed hamsters, reduction of VLD/LDL cholesterol and TG plasma levels; format: in vivo, hamster; settings: hamsters fed 0.2% cholesterol and 10% coconut oil diet, once a day for 3 days, reduction in VLD/LDL cholesterol and TG plasmatic levels
Method: The in vivo profile of the compounds is evaluated by oral administration of the compounds of the invention to fat-fed hamsters. Measurements of VLD/LDL cholesterol and triglycerides upon treatment allow the activity to be determined.
Compounds were prepared for oral administration by milling with 0.5% hydroxypropylmethylcellulose and 5% Tween 80. Hamsters were fed for 2 weeks with a diet containing 0.2% of cholesterol and 10% of coconut oil. Then compounds were administrated once a day for 3 days, from 20 to 0.2 mg/kg. Plasma lipid levels including total cholesterol, VLD/LDL cholesterol, VLD/LDL triglycerides and HDL-cholesterol were determinated after ultracentrifugation (density 1.063 g/ml to separate VLD/LDL fraction and HDL fraction) using the Biomerieux enzymatic kit. Reductions in VLD/LDL cholesterol and TG plasmatic levels were calculated taking solvant treated animals as control and ED50 of each compound was determined.

COc1c(C2CCN(CCCCNC(=O)c3ccc(-c4ccc(C#N)cc4)cc3)CC2)ccc2c1CCCC2 [Example 11, 4′-Cyano-biphenyl-4-carboxylic Acid {4-[4-(1-methoxy-5,6,7,8-tetrahydro-naphtalen-2-yl)-piperidin-1-yl]-butyl}-amide]
pIC50 (LDL-r promoter): 8.00 | In vivo (ED50) (fat-fed hamsters): 1 mg/kg

Cc1ccc(C2CCN(CCCCNC(=O)c3ccc(-c4ccc(C#N)cc4)cc3)CC2)c(O)c1 [Example 18, 4′-Cyano-biphenyl-4-carboxylic Acid {4-[4-(2-hydroxy-4-methyl-phenyl)-piperidin-1-yl]-butyl}-amide]
melting point: 184 °C

CCOc1cc(CC)ccc1C1CCN(CCCCNC(=O)c2ccc(-c3ccc(S(C)(=O)=O)cc3)cc2)CC1 [Example 12, 4′-Methanesulfonyl-biphenyl-4-carboxylic Acid {4-[4-(2-ethoxy-4-ethyl-phenyl)-piperidin-1-yl]-butyl}-amide]
melting point: 179 to 180 °C

CCc1ccc(C2CCN(CCCCNC(=O)c3ccc(-c4ccc(C#N)cc4)cc3)CC2)c(O)c1 [Example 14, 4′-Cyano-biphenyl-4-carboxylic Acid {4-[4-(2-hydroxy-4-ethyl-phenyl)-piperidin-1-yl]-butyl}-amide]
melting point: 252 °C

CCc1ccc(C2CCN(CCCCNC(=O)c3ccc(-c4ccc(C(F)(F)F)cc4)cc3)CC2)c(OCC2CC2)c1 [Example 2, 4′-Trifluoromethyl-biphenyl-4-carboxylic Acid [4-[4-(2-cyclopropylmethoxy-4-ethyl-phenyl)-piperidin-1-yl]-butyl]-amide]
melting point: 247 to 249 °C

CCOc1cc(CC)ccc1C1CCN(CCCCNC(=O)c2ccc(-c3ccc(C#N)cc3)cc2)CC1 [Example 5, 4′-Cyano-biphenyl-4-carboxylic Acid {4-[4-(2-ethoxy-4-ethyl-phenyl)-piperidin-1-yl]-butyl}-amide]
pIC50 (LDL-r promoter; Homo sapiens): 8.00 | melting point: 165 °C | ED50 (fat-fed hamsters; Mesocricetus auratus, 72 h, read-out: In vivo (ED50)): 2 mg/kg

COc1c(C2CCN(CCCCNC(=O)c3ccc(-c4ccc(Cl)cc4)cc3)CC2)ccc2ccccc12 [Example 3, 4′-Chloro-biphenyl-4-carboxylic Acid {4-[4-(1-methoxy-naphtalen-2-yl)-piperidin-1-yl]-butyl}-amide]
pIC50 (LDL-r promoter): 8.00 | In vivo (ED50) (fat-fed hamsters): 2 mg/kg
